Results taken from PubChem BioAssay (NCI).
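Following 48 hours of exposure in 96-well plates, responses at five concentrations were used to interpolate endpoints linearly. The concentration for full growth arrest is given as TGI.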

Tested on: RXF-631 renal
Assay: growth of human tumour cells (NCI), 48 h

SMILES	TGI [µM]
COC(=O)C1C=CCON2CCc3c(n(C)c4ccccc34)C12 (centres undefined)	> 100
O=C1c2ccccc2C(=O)c2c(O)c(NCCCNCCO)cc(O)c21	25
C=CCc1cc(-c2cc(CC=C)c(O)c(CN(CC)CC)c2)cc(CN(CC)CC)c1O	44.5
O=C1C=CC(=C(c2ccc(O)cc2)c2ccc(O)cc2)C=C1	29.6
